Test results as given in patent US20240182945A1, “PRODUCTS FOR REGULATION OF EUKARYOTIC AND MICROBIAL CELLS GROWTH” (priority 2021, published 2024).
Starred links: 1 amine or outer side, 2 acyl side, 3 side chain; linkers in the order of their positions; H or OH if unused. Positions of bridges follow the written chain, without caps; N, C: chain ends. Non-standard residues stand in square brackets, D forms with d. Residues, ends and D or L forms follow the SMILES beside them. *: point of attachment. hTyr(3S-OH,4S-OH,3'-OSO3H) = N[C@H](C(=O)O)[C@H](O)[C@@H](O)c1ccc(O)c(OS(=O)(=O)O)c1; pTerphenylCO(4''-OnC5H11) = CCCCCOc1ccc(-c2ccc(-c3ccc(C(=O)*)cc3)cc2)cc1; Orn(4R-OH,5R-OH) = O=C([C@H](C[C@@H](O)[C@@H](O)N[*:3])N[*:1])[*:2]; hTyr(3S-OH,4S-OH) = N[C@H](C(=O)O)[C@H](O)[C@@H](O)c1ccc(O)cc1; Pro(3S-OH,4S-Me) = C[C@H]1CN[C@H](C(=O)O)[C@H]1O; X1 = CCCCCOc1ccc(-c2cc(-c3ccc(C(=O)*)cc3)no2)cc1; Gln(3R-OH) = NC(=O)C[C@@H](O)[C@H](N)C(=O)O; Hyp = O=C(O)[C@@H]1C[C@@H](O)CN1

Tested on: C. albicans, non-albicans Candida spp. Aspergillus spp. in oral swabs from patients with oral candidiasis
Assay: Signs of fungal growth on 12 well plate test system supplemented with antifungal antibiotics
Type: cell-based
Conditions: naked eye examination, samples resistant to the antibiotic
Protocol: Oral swabs (n=6) from patients with confirmed oral candidiasis caused by C. albicans, non-albicans Candida spp. Aspergillus spp., were dissolved with PBS and 0.1 uL were plated on 12 well plate test system filled with Mixed Medium 1 (see above), Mixed Medium 2 (Sabouraud agar+Potato Dextrose Agar+vitamins B12+B7) (MM2), Sabouraud agar (SA), Potato Dextrose Agar (PDA), Sabouraud's Heart Infusion (SABHI) agar. 11 wells were filled with media supplemented with antibiotics (taken at mean concentration of each antibiotic achieved in lungs at different timpoints post drug administration)—Nystatin, Amphotericin B, Clotrimazole, Fluconazole, Isavuconazole, Terbinafin, Posaconazole, Voriconazole, Anidulafungin, Caspofungin, Micafungin. One well was antibiotic free.
Plates was incubated at 30 C and the analysis of the presence/absence of microbial growth was monitored every 15 minutes from […] to 5 h, then hourly from 5 h to 8 h and then at 18 and 24 h post plating with a naked eye.
Three methods (algorithms) how to analyze fungal growth were used.
Method (Algorithm) #1. Lab technician, analyzed the appearance of fungal growth by comparing the signs of fungal growth in each well supplemented with antibiotic(s) at certain timepoint, with the signs of funal growth in the same well at previous time point(s).
Method (Algorithm)#2. Lab technician analyzed the appearance of fungal growth by comparing the signs of fungal growth in each well supplemented with antibiotic(s) with fungal growth in antibiotic-free control
Method (Algorithm) #3. Lab technician analyzed the absence of fungal growth in the wells in fixed time period of 3.5 h; 5 h and 24 h.

[1] = Method (Algorithm) #1, MM1 medium
[2] = Method (Algorithm) #1, MM2 medium
[3] = Method (Algorithm) #1, PDA medium
[4] = Method (Algorithm) #1, SA (Sabouraud agar)
[5] = Method (Algorithm) #1, SABHI medium
[6] = Method (Algorithm) #2, MM1 medium
[7] = Method (Algorithm) #2, MM2 medium
[8] = Method (Algorithm) #2, PDA medium
[9] = Method (Algorithm) #2, SA (Sabouraud agar)
[10] = Method (Algorithm) #2, SABHI medium

SMILES | Mean hour at which fungal growth became visible on the wells supplemented with a certain antibiotic [1] | Mean hour at which fungal growth became visible on the wells supplemented with a certain antibiotic [2] | Mean hour at which fungal growth became visible on the wells supplemented with a certain antibiotic [3] | Mean hour at which fungal growth became visible on the wells supplemented with a certain antibiotic [4] | Mean hour at which fungal growth became visible on the wells supplemented with a certain antibiotic [5] | Mean hour at which fungal growth became visible on the wells supplemented with a certain antibiotic [6] | Mean hour at which fungal growth became visible on the wells supplemented with a certain antibiotic [7] | Mean hour at which fungal growth became visible on the wells supplemented with a certain antibiotic [8] | Mean hour at which fungal growth became visible on the wells supplemented with a certain antibiotic [9] | Mean hour at which fungal growth became visible on the wells supplemented with a certain antibiotic [10]
C[C@@H](c1nc(-c2ccc(C#N)cc2)cs1)[C@](O)(Cn1cncn1)c1cc(F)ccc1F [Isavuconazole] | 5 h | 4.5 h | 6 h | 6.5 h | 7 h | 6 h | 5.5 h | 7.5 h | 7.5 h | 8.5 h
CCCCCOc1ccc(-c2cc(-c3ccc(C(=O)N[C@H]4C[C@@H](O)[C@@H](O)NC(=O)[C@@H]5[C@@H](O)[C@@H](C)CN5C(=O)[C@H]([C@H](O)CC(N)=O)NC(=O)[C@H]([C@H](O)[C@@H](O)c5ccc(O)c(OS(=O)(=O)O)c5)NC(=O)[C@@H]5C[C@@H](O)CN5C(=O)[C@H]([C@@H](C)O)NC4=O)cc3)no2)cc1 [Micafungin] (X1-[Orn(4R-OH,5R-OH)]T[Hyp][hTyr(3S-OH,4S-OH,3'-OSO3H)][Gln(3R-OH)][Pro(3S-OH,4S-Me)]; lactam 1-C) | 4.5 h | 5 h | 6 h | 6 h | 5 h | 4.5 h | 5.5 h | 7.5 h | 8 h | 6.5 h
C[C@@H]1[C@H](O)[C@@H](C)/C=C/C=C/CC/C=C/C=C/C=C/C=C/C(O[C@H]2O[C@H](C)[C@@H](O)[C@H](N)[C@@H]2O)CC2O[C@](O)(CC(O)C(O)CCC(O)CC(O)CC(O)CC(=O)O[C@H]1C)CC(O)C2C(=O)O (stereo partly drawn) [Nystatin] | 4 h | 4.5 h | 5 h | 6 h | 5.5 h | 4.5 h | 6 h | 6.5 h | 6 h | 7.5 h
CCCCCOc1ccc(-c2ccc(-c3ccc(C(=O)N[C@H]4C[C@@H](O)[C@@H](O)NC(=O)[C@@H]5[C@@H](O)[C@@H](C)CN5C(=O)[C@H]([C@@H](C)O)NC(=O)[C@H]([C@H](O)[C@@H](O)c5ccc(O)cc5)NC(=O)[C@@H]5C[C@@H](O)CN5C(=O)[C@H]([C@@H](C)O)NC4=O)cc3)cc2)cc1 [Anidulafungin] ({pTerphenylCO(4''-OnC5H11)}-[Orn(4R-OH,5R-OH)]T[Hyp][hTyr(3S-OH,4S-OH)]T[Pro(3S-OH,4S-Me)]; lactam 1-C) | 4 h | 5 h | 6.5 h | 5.5 h | 6.5 h | 5.5 h | 4.5 h | 7.5 h | 6.5 h | 8.5 h
C[C@@H](c1ncncc1F)[C@](O)(Cn1cncn1)c1ccc(F)cc1F [Voriconazole] | 4 h | 4.5 h | 5.5 h | 4.5 h | 5.5 h | 4.5 h | 4.5 h | 6.5 h | 8 h | 7 h
Clc1ccccc1C(c1ccccc1)(c1ccccc1)n1ccnc1 [Clotrimazole] | 3.5 h | 4.5 h | 7.5 h | 5 h | 6.5 h | 4.5 h | 6.5 h | 8.5 h | 7.5 h | 6.5 h
C[C@@H]1[C@H](O)[C@@H](C)/C=C/C=C/C=C/C=C/C=C/C=C/C=C/[C@H](O[C@@H]2O[C@H](C)[C@@H](O)[C@H](N)[C@@H]2O)C[C@@H]2O[C@](O)(C[C@@H](O)C[C@@H](O)[C@H](O)CC[C@@H](O)C[C@@H](O)CC(=O)O[C@H]1C)C[C@H](O)[C@H]2C(=O)O [Amphotericin B] | 3 h | 5 h | 4.5 h | 6.5 h | 6 h | 5 h | 5 h | 7.5 h | 7 h | 8 h
CC[C@@H]([C@H](C)O)n1ncn(-c2ccc(N3CCN(c4ccc(OC[C@@H]5CO[C@@](Cn6cncn6)(c6ccc(F)cc6F)C5)cc4)CC3)cc2)c1=O [Posaconazole] | 3.5 h | 4.5 h | 5 h | 5 h | 5.5 h | 4.5 h | 5 h | 8.5 h | 7 h | 7 h
OC(Cn1cncn1)(Cn1cncn1)c1ccc(F)cc1F [Fluconazole] | 4 h | 4.5 h | 5 h | 6.5 h | 7.5 h | 5.5 h | 5.5 h | 6.5 h | 7 h | 8 h
